Results: patent US12084479B2, “Modified antimicrobial peptide derived from an arginine-rich domain” (priority 2016, dated 2024)
In brackets after ≈: the same amount, converted by molar mass. Like-named read-outs stand apart in the source and are kept apart here. Where a SMILES comes first, the peptide text is derived from it. Where no end group is shown, it is not given here. [ ]: non-standard residue; d: D form.

How the values were obtained:
[1] = tested on: colistin-resistant A. baumannii TCGH 46709; assay: Mouse lung infection model, intra-tracheal inoculation; type: in vivo, BALB/c mice; details: 5 mg/kg/day ip.
Procedure: FIG. 6 is a graph showing in vivo protection efficacies of 150-177C and 150-177Q peptides in a BALB/c mouse lung infection model. Colistin-resistant A. baumannii was inoculated via intra-tracheal route.
BALB/c mice (n=8/group) were intra-tracheally inoculated with colistin-resistant A. baumannii TCGH 46709 (3.4×10^8 cfu/mouse). These lung-infected mice were ip. treated with colistin (5 mg/kg/day) or D-150-177C (5 and 10 mg/kg/day), respectively.

A. baumannii = type: cell-based, Acinetobacter baumannii
Procedure: (§1) The antimicrobial activities of HBcARD peptides were tested using a number of bacterial strains, including Pseudomonas aeruginosa Migula strains (ATCC 27853, ampicillin-resistant and ATCC 9027, ampicillin-resistant), Klebsiella pneumoniae strain (ATCC 13884), Shigella dysenteriae Xen27 (Caliper Co.), Escherichia coli strain (ATCC 25922), Staphylococcus aureus subsp. strains (ATCC 25923, methicillin-resistantATCC 29213, methicillin-resistant and ATCC 19636, methicillin-resistant) and Acinetobacter baumannii strains (ATCC 17978, ATCC 17978 CR, ATCC19606, ATCC 19606 CR, TCGH 45530 and TCGH 46709). Clinical isolates TCGH 45530 and TCGH 46709 were obtained from Tzu-Chi Buddhist General Hospital (TCGH) in Taiwan, and were identified using the Vitek system (Biomerieux Vitek, Inc., Hazelwood, MO, USA). See Chang et al. (2012), J Microbiol Immunol Infect 45:37-42 doi:10.1016/j.jmii.2011.09.019.
(§2) L- and D-HBcARD peptides were purchased from Yao-Hong Biotechnology Inc. (Taipei, Taiwan). Antimicrobial activity was determined as described. See, Chen et al., 2013. Briefly, bacteria were grown in MH broth (Difco) to mid-logarithmic phase at 37° C., and were diluted to 10^6 CFU (colony formation unit)/ml in phosphate buffer (10 mM sodium phosphate and 50 mM sodium chloride, pH 7.2). Peptides were serially diluted in the same buffer. Fifty microliters (μl) of bacteria were mixed with fifty μl of peptides at varying concentrations, followed by incubation at 37° C. for 3 hours without shaking. At the end of incubation, bacteria were placed on Mueller-Hinton broth agar plates, and allowed to grow at 37° C. overnight for measurement of minimal bactericidal concentration (MBC).
(§3) All peptides were tested in triplicate.

E. coli = type: cell-based, Escherichia coli
Procedure: as §1, §2, §3

S. dysenteriae Xen27 = type: cell-based, Shigella dysenteriae
Procedure: as §1
L- and D-HBcARD peptides were purchased from Yao-Hong Biotechnology Inc. (Taipei, Taiwan). Antimicrobial activity was determined as described. See, Chen et al., 2013. Briefly, bacteria were grown in MH broth (Difco) to mid-logarithmic phase at 37° C., and were diluted to 10^6 CFU (colony formation unit)/ml in phosphate buffer (10 mM sodium phosphate and 50 mM sodium chloride, pH 7.2). Peptides were serially diluted in the same buffer. […]

S. aureus ATCC 19636 = assay: Immunogenicity: sepsis model in peptide-immunized mice; type: in vivo, ICR mice; details: immunized three times with 5 mg/kg peptide
Procedure: FIG. 4 is a set of graphs showing comparison of in vivo protection activities between L- and D-form HBcARD peptides in a mouse sepsis model infected with S. aureus. (A) Three week-old ICR mice were inoculated with S. aureus (4×10^6 CFU/mouse) and i.p. injected with PBS, L-HBcARD, or D-HBcARD at 2 hours post-inoculation. Each group contained ten mice. (B) and (C) Three week-old ICR mice were immunized with L- and D-HBcARD peptides (5 mg/kg), respectively, at day 0, 3 and 6. On day 14, the mice were inoculated with S. aureus (4×10^6 CFU/mouse) and i.p. injected with PBS, L-HBcARD or D-HBcARD (10 mg/kg) at 1 hour post-inoculation, respectively. Another group of mice were treated with PBS in parallel as a control. Each group of animals contained five mice. *P<0.05; ***P<0.0001; ns, no significance.
To investigate whether repeated treatments with the 37-mer HBcARD peptides may compromise the efficacy by inducing neutralization antibody in vivo, we immunized 3-week old mice three times with L- and D-HBcARD peptides, respectively, prior to bacterial infection. […]
To investigate the potential immunogenicity of HBcARD peptides, we determined the in vivo antimicrobial activity of HBcARD peptide in peptide-immunized mice. […] Mortality was monitored daily for 7 days following the bacterial inoculation.

[2] = tested on: human red blood cells (hRBCs); assay: Hemolytic activity; type: cell-based; details: up to 460 mg/L, 37° C., one hour
Procedure: In the hemolysis assay, human RBCs were incubated with serially-diluted doses (0 to 460 mg/L) of D-HBcARD, L-HBcARD, or melittin, at 37° C. for one hour.
The hemolytic activities of peptides were determined by hemolysis against human red blood cells (hRBCs). Human blood was obtained in EDTA-containing tube and was centrifuged at 450 g for 10 min. The pellet was washed three times with PBS buffer, and a solution of 10% hRBCs was prepared. hRBCs solution was mixed with serial dilutions of peptides in PBS buffer, and the reaction mixtures were incubated for 1 h at 37° C. After centrifugation at 450 g for 10 min, the percentage of hemolysis was determined by measuring the absorbance at the wavelength of 405 nm of the supernatant. Blank and 100% hemolysis were determined in PBS buffer and in the presence of 1% Triton X-100, respectively.

[3] = Protease resistance assay (serum stability), SDS-PAGE and Green Angel staining; type: in vitro ADME; details: 5% bovine serum, 37° C.
Procedure: To compare the stability of the 37-mer L- and D-HBcARD peptides against serum protease degradation, we performed a protease resistance assay. After incubation with 5% bovine serum at 37° C. for 3 hours, more than 80% of L-HBcARD peptide was no longer detectable by staining with Green Angel on SDS-PAGE. In contrast, the signal intensity of the D-HBcARD peptide was not reduced under the same condition.
L- and D-HBcARD peptides (0.5 nmol) were mixed with MBC buffer in the presence or absence of 5% serum collected from bovine, mouse and human origins. After incubation at 37° C. for 3 hours, the amounts of peptides surviving the protease digestion were determined by SDS-PAGE electrophoresis and staining with Green Angel. The images were quantified using image J software and the intensities were normalized with the no serum control. To investigate the effect of serum on the antimicrobial activity of HBcARD peptides, L- and D-HBcARD peptides at their respective MBC concentrations were incubated with S. aureus ATCC19636 strain (10^6 CFU/ml) at 37° C. for three hours. Bacteria were plated on MH agar and the antimicrobial activity was determined by colony formation.

S. aureus = type: cell-based, Staphylococcus aureus
Procedure: as §1, §2, §3

P. aeruginosa = type: cell-based, Pseudomonas aeruginosa
Procedure: as §1, §2, §3

K. pneumoniae = type: cell-based, Klebsiella pneumoniae
Procedure: as §1, §2, §3

Compound | survival outcome [1] | MBC (A. baumannii) [µg/mL] | Minimal bactericidal concentration (E. coli) [µg/mL] | Minimal bactericidal concentration (S. dysenteriae Xen27; S. dysenteriae Xen27) [µg/mL] | neutralization activity induced by prior immunizations (S. aureus ATCC 19636) | hemolytic activity [2] | signal intensity of the peptide after serum incubation ([3]; 3 hours) | MBC (S. aureus) [µg/mL] | Minimal bactericidal concentration (P. aeruginosa) [µg/mL] | Minimal bactericidal concentration (S. dysenteriae Xen27) [µg/mL] | metabolised at 3 h ([3]; read-out: peptide no longer detectable by staining with Green Angel on SDS-PAGE) [%] | Minimal bactericidal concentration (S. aureus) [µg/mL] | Minimal bactericidal concentration (K. pneumoniae) [µg/mL]
colistin | died at 60 hours post-inoculation | – | – | – | – | – | – | – | – | – | – | – | –
CC(C)[C@H](NC(=O)[C@@H](NC(=O)[C@@H](N)[C@@H](C)O)C(C)C)C(=O)N[C@H](CCCNC(=N)N)C(=O)N[C@H](CCCNC(=N)N)C(=O)N[C@H](CCCNC(=N)N)C(=O)NCC(=O)N[C@H](CCCNC(=N)N)C(=O)N[C@@H](CO)C(=O)N1CCC[C@H]1C(=O)N[C@H](CCCNC(=N)N)C(=O)N[C@H](CCCNC(=N)N)C(=O)N[C@H](CCCNC(=N)N)C(=O)N[C@H](C(=O)N1CCC[C@H]1C(=O)N[C@@H](CO)C(=O)N1CCC[C@H]1C(=O)N[C@H](CCCNC(=N)N)C(=O)N[C@H](CCCNC(=N)N)C(=O)N[C@H](CCCNC(=N)N)C(=O)N[C@H](CCCNC(=N)N)C(=O)N[C@@H](CO)C(=O)N[C@@H](CCC(N)=O)C(=O)N[C@@H](CO)C(=O)N1CCC[C@H]1C(=O)N[C@H](CCCNC(=N)N)C(=O)N[C@H](CCCNC(=N)N)C(=O)N[C@H](CCCNC(=N)N)C(=O)N[C@H](CCCNC(=N)N)C(=O)N[C@@H](CO)C(=O)N[C@@H](CCC(N)=O)C(=O)N[C@@H](CO)C(=O)N[C@H](CCCNC(=N)N)C(=O)N[C@@H](CCC(=O)O)C(=O)N[C@@H](CO)C(=O)N[C@@H](CCC(N)=O)C(=O)N[C@@H](CS)C(=O)O)[C@@H](C)O [D-HBcARD, TVVrrrGrSPrrrTPSPrrrrSQSPrrrrSQSrESQC] (H-TVV[dR][dR][dR]G[dR]SP[dR][dR][dR]TPSP[dR][dR][dR][dR]SQSP[dR][dR][dR][dR]SQS[dR]ESQC-OH; N-terminus and C-terminus assumed) | – | 2.3 to 4.6 | 73.6 (≈ 16 µM) | 73.6 (≈ 16 µM) | no neutralization activity | no hemolytic activity | not reduced | 4.6 to 9.2 | 4.6 (≈ 1 µM) | – | – | – | –
TVVRRRGRSPRRRTPSPRRRRSQSPRRRRSQSRESQC [L-HBcARD] | – | – | 18.4 | – | no neutralization activity | no hemolytic activity | – | – | – | 18.4 | > 80 | 18.4 | 9.2
